Assay results published in ChEMBL document CHEMBL1201862, “PubChem BioAssay data set” (2004).
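Values below derive from 48-hour exposures of cells grown in 96-well plates, with endpoints linearly interpolated between the two concentrations bracketing the appropriate inhibition level. Here, GI50 denotes the concentration required for 50% inhibition of growth.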 The source made the active and inactive calls. Rule as the data show it: active = GI50 up to about 1.1 µM and inactive = higher.

Experiments:
Assay in all cases: inhibition of tumour cell growth, NCI panel, 48 h
OVCAR-4 = test system: OVCAR-4
T47D = test system: T47D
OVCAR-5 = test system: OVCAR-5
SW-620 = test system: SW-620
SK-MEL-2 = test system: SK-MEL-2
RXF 393 = test system: RXF 393
PC-3 = test system: PC-3
Malme-3M = test system: Malme-3M
UACC-257 = test system: UACC-257
Hs-578T = test system: Hs-578T
OVCAR-3 = test system: OVCAR-3
NCI-H522 = test system: NCI-H522
ACHN = test system: ACHN
CAKI-1 = test system: CAKI-1
K562 = test system: K562
SNB-19 = test system: SNB-19
HOP-92 = test system: HOP-92
NCI-H23 = test system: NCI-H23
MCF7 = test system: MCF7
UACC-62 = test system: UACC-62
SF-268 = test system: SF-268
KM12 = test system: KM12
SF-295 = test system: SF-295
A549 = test system: A549
HOP-62 = test system: HOP-62
NCI-H226 = test system: NCI-H226
SNB-75 = test system: SNB-75
IGROV-1 = test system: IGROV-1
OVCAR-8 = test system: OVCAR-8
MDA-MB-231 = test system: MDA-MB-231
MDA-N = test system: MDA-N
HCT-116 = test system: HCT-116
DU-145 = test system: DU-145
NCI-H460 = test system: NCI-H460
HCT-15 = test system: HCT-15
SR = test system: SR
MDA-MB-435 = test system: MDA-MB-435
HCC 2998 = test system: HCC 2998
MOLT-4 = test system: MOLT-4
COLO 205 = test system: COLO 205
786-0 = test system: 786-0
TK-10 = test system: TK-10
UO-31 = test system: UO-31
SK-MEL-5 = test system: SK-MEL-5
SK-MEL-28 = test system: SK-MEL-28
HT-29 = test system: HT-29
CCRF-CEM = test system: CCRF-CEM
EKVX = test system: EKVX
M14 = test system: M14
LOX IMVI = test system: LOX IMVI
SN12C = test system: SN12C
SF-539 = test system: SF-539
U-251 = test system: U-251
RPMI-8226 = test system: RPMI-8226
BT-549 = test system: BT-549
SK-OV-3 = test system: SK-OV-3
HL-60 = test system: HL-60
NCI/ADR-RES = test system: NCI/ADR-RES
A498 = test system: A498

For `CN1C(=O)c2ccccc2OC12C=Cc1c(ccc3ccccc13)O2` (configuration not stated), the GI50 (OVCAR-4) was 5.56 µM (inactive), the GI50 (T47D) was 5.43 µM (inactive) and the GI50 (OVCAR-5) was 6.47 µM (inactive). For the same molecule, the GI50 (SW-620) was 3.64 µM (inactive), the GI50 (SK-MEL-2) was 3.34 µM (inactive) and the GI50 (RXF 393) was 3.85 µM (inactive). The GI50 (PC-3) was 3.27 µM (inactive), the GI50 (Malme-3M) was 0.328 µM (active) and the GI50 (UACC-257) was 8.3 µM (inactive). For the same molecule, the GI50 (Hs-578T) was 3.85 µM (inactive), the GI50 (OVCAR-3) was 4.03 µM (inactive) and the GI50 (NCI-H522) was 0.682 µM (active). For the same molecule, the GI50 (ACHN) was 3.1 µM (inactive), the GI50 (CAKI-1) was 5.66 µM (inactive) and the GI50 (K562) was 2.82 µM (inactive). The GI50 (SNB-19) was 4.49 µM (inactive), the GI50 (HOP-92) was 1.85 µM (inactive) and the GI50 (NCI-H23) was 4.05 µM (inactive). The GI50 (MCF7) was 4.4 µM (inactive), the GI50 (UACC-62) was 5.19 µM (inactive) and the GI50 (SF-268) was 3.78 µM (inactive). The GI50 (KM12) was 2.21 µM (inactive), the GI50 (SF-295) was 2.45 µM (inactive) and the GI50 (A549) was 3.47 µM (inactive). The GI50 (HOP-62) was 4.29 µM (inactive), the GI50 (NCI-H226) was 5.94 µM (inactive) and the GI50 (SNB-75) was 4.84 µM (inactive). The GI50 (IGROV-1) was 3.5 µM (inactive), the GI50 (OVCAR-8) was 3.74 µM (inactive) and the GI50 (MDA-MB-231) was 13.1 µM (inactive). The GI50 (MDA-N) was 2.36 µM (inactive), the GI50 (HCT-116) was 4.02 µM (inactive) and the GI50 (DU-145) was 8 µM (inactive). The GI50 (NCI-H460) was 6.59 µM (inactive), the GI50 (HCT-15) was 2.95 µM and the GI50 (SR) was 3.48 µM (inactive). The GI50 (MDA-MB-435) was 2.29 µM (inactive), the GI50 (HCC 2998) was 3.95 µM (inactive) and the GI50 (MOLT-4) was 3.53 µM (inactive). For the same molecule, the GI50 (COLO 205) was 3.31 µM (inactive), the GI50 (786-0) was 7.19 µM (inactive) and the GI50 (TK-10) was 7.82 µM (inactive). The GI50 (UO-31) was 6.52 µM (inactive), the GI50 (SK-MEL-5) was 6.05 µM (inactive) and the GI50 (SK-MEL-28) was 14.2 µM (inactive). For the same molecule, the GI50 (HT-29) was 2.92 µM (inactive), the GI50 (CCRF-CEM) was 3.83 µM (inactive) and the GI50 (EKVX) was 2.32 µM (inactive). For the same molecule, the GI50 (M14) was 3.03 µM (inactive), the GI50 (LOX IMVI) was 5.93 µM (inactive) and the GI50 (SN12C) was 15.2 µM (inactive). For the same molecule, the GI50 (SF-539) was 5.58 µM (inactive), the GI50 (U-251) was 3.42 µM (inactive) and the GI50 (RPMI-8226) was 3.02 µM (inactive). The GI50 (BT-549) was 5.96 µM (inactive), the GI50 (SK-OV-3) was 5.78 µM (inactive) and the GI50 (HL-60) was 2.99 µM (inactive). The GI50 (NCI/ADR-RES) was 2.38 µM (inactive) and the GI50 (A498) was 12.9 µM (inactive).
For `CC1=NN(c2nc(N)nc(C(C#N)C(=O)c3cc4c(cc3Cl)Sc3nccn3S4(=O)=O)n2)C(C)(C)C1` (configuration not stated), the GI50 (OVCAR-4) was 10.1 µM (inactive), the GI50 (T47D) was 14.6 µM (inactive) and the GI50 (OVCAR-5) was > 100 µM (inactive). For the same molecule, the GI50 (SW-620) was 20.5 µM (inactive), the GI50 (SK-MEL-2) was 20.2 µM (inactive) and the GI50 (RXF 393) was 27.3 µM (inactive). The GI50 (PC-3) was 29.2 µM (inactive), the GI50 (Malme-3M) was 14.3 µM (inactive) and the GI50 (UACC-257) was 19.2 µM (inactive). For the same molecule, the GI50 (Hs-578T) was 32.2 µM (inactive), the GI50 (OVCAR-3) was 13.6 µM (inactive) and the GI50 (NCI-H522) was 18.6 µM (inactive). The GI50 (ACHN) was 13.4 µM (inactive), the GI50 (CAKI-1) was 13.5 µM (inactive) and the GI50 (K562) was 34.9 µM (inactive). The GI50 (SNB-19) was 55.6 µM (inactive), the GI50 (HOP-92) was 26.7 µM (inactive) and the GI50 (NCI-H23) was 16.1 µM (inactive). The GI50 (MCF7) was 14.3 µM (inactive), the GI50 (UACC-62) was 18.8 µM (inactive) and the GI50 (SF-268) was 13.6 µM (inactive). The GI50 (KM12) was 20 µM (inactive), the GI50 (SF-295) was 20.5 µM (inactive) and the GI50 (A549) was 61.4 µM (inactive). For the same molecule, the GI50 (HOP-62) was 34.7 µM (inactive), the GI50 (NCI-H226) was 16.5 µM (inactive) and the GI50 (SNB-75) was 16.1 µM (inactive). The GI50 (IGROV-1) was 20.8 µM (inactive), the GI50 (OVCAR-8) was 20.7 µM (inactive) and the GI50 (MDA-MB-231) was 15.6 µM (inactive). For the same molecule, the GI50 (MDA-N) was 21.9 µM (inactive), the GI50 (HCT-116) was 18 µM (inactive) and the GI50 (DU-145) was 16.8 µM (inactive). For the same molecule, the GI50 (NCI-H460) was 8.83 µM (inactive), the GI50 (HCT-15) was 6.44 µM and the GI50 (SR) was 4.4 µM (inactive). The GI50 (MDA-MB-435) was 22.8 µM (inactive), the GI50 (HCC 2998) was 8.41 µM (inactive) and the GI50 (MOLT-4) was 13 µM (inactive). The GI50 (COLO 205) was 24.9 µM (inactive), the GI50 (786-0) was 13.5 µM (inactive) and the GI50 (TK-10) was 17.9 µM (inactive). The GI50 (UO-31) was 30.1 µM (inactive), the GI50 (SK-MEL-5) was 14 µM (inactive) and the GI50 (SK-MEL-28) was 20 µM (inactive). The GI50 (HT-29) was 34.3 µM (inactive), the GI50 (CCRF-CEM) was 6.84 µM (inactive) and the GI50 (EKVX) was 16.9 µM (inactive). For the same molecule, the GI50 (M14) was 34.5 µM (inactive), the GI50 (LOX IMVI) was 17.7 µM (inactive) and the GI50 (SN12C) was 17.3 µM (inactive). The GI50 (SF-539) was 37.7 µM (inactive), the GI50 (U-251) was 16 µM (inactive) and the GI50 (RPMI-8226) was 14.9 µM (inactive). For the same molecule, the GI50 (BT-549) was 13.6 µM (inactive), the GI50 (SK-OV-3) was 18.5 µM (inactive) and the GI50 (HL-60) was 10.3 µM (inactive). The GI50 (NCI/ADR-RES) was > 100 µM (inactive) and the GI50 (A498) was 52.1 µM (inactive).
`Cc1nc(O)nc(N/N=C/c2ccc(Cl)c(Cl)c2)c1C(=O)Nc1ccc(Cl)c(Cl)c1` was tested, and the GI50 (OVCAR-4) was 3.62 µM (inactive), the GI50 (T47D) was 24.7 µM (inactive) and the GI50 (OVCAR-5) was 26.5 µM (inactive). The GI50 (SW-620) was 12.9 µM (inactive), the GI50 (SK-MEL-2) was 17 µM (inactive) and the GI50 (RXF 393) was 15.2 µM (inactive). The GI50 (PC-3) was 12.7 µM (inactive), the GI50 (Malme-3M) was 11.6 µM (inactive) and the GI50 (UACC-257) was > 24.6 µM (inactive). For the same molecule, the GI50 (Hs-578T) was 10.5 µM (inactive), the GI50 (OVCAR-3) was 9.62 µM (inactive) and the GI50 (NCI-H522) was 17.1 µM (inactive). The GI50 (ACHN) was > 38.6 µM (inactive), the GI50 (CAKI-1) was 17.2 µM (inactive) and the GI50 (K562) was 11.5 µM (inactive). The GI50 (SNB-19) was 9.59 µM (inactive), the GI50 (HOP-92) was 17.9 µM (inactive) and the GI50 (NCI-H23) was 13.1 µM (inactive). For the same molecule, the GI50 (MCF7) was 18.5 µM (inactive), the GI50 (UACC-62) was 17.6 µM (inactive) and the GI50 (SF-268) was 10.5 µM (inactive). The GI50 (KM12) was 6.49 µM (inactive), the GI50 (SF-295) was 10.6 µM (inactive) and the GI50 (A549) was 14 µM (inactive). The GI50 (HOP-62) was 10.8 µM (inactive), the GI50 (NCI-H226) was 28.4 µM (inactive) and the GI50 (SNB-75) was 12.3 µM (inactive). For the same molecule, the GI50 (IGROV-1) was 13.8 µM (inactive), the GI50 (OVCAR-8) was 4.27 µM (inactive) and the GI50 (MDA-MB-231) was 2.44 µM (inactive). The GI50 (MDA-N) was 15.7 µM (inactive), the GI50 (HCT-116) was 6.75 µM (inactive) and the GI50 (DU-145) was 12.6 µM (inactive). The GI50 (NCI-H460) was 18.4 µM (inactive), the GI50 (HCT-15) was 11.7 µM and the GI50 (SR) was 36.3 µM (inactive). For the same molecule, the GI50 (MDA-MB-435) was 11.1 µM (inactive), the GI50 (HCC 2998) was > 51.8 µM (inactive) and the GI50 (MOLT-4) was 38.5 µM (inactive). The GI50 (COLO 205) was 13.1 µM (inactive), the GI50 (786-0) was 10.3 µM (inactive) and the GI50 (TK-10) was 11.5 µM (inactive). For the same molecule, the GI50 (UO-31) was > 42.1 µM (inactive), the GI50 (SK-MEL-5) was 9.59 µM (inactive) and the GI50 (SK-MEL-28) was 8.97 µM (inactive). The GI50 (HT-29) was 14.9 µM (inactive), the GI50 (CCRF-CEM) was 8.65 µM (inactive) and the GI50 (EKVX) was 30 µM (inactive). For the same molecule, the GI50 (M14) was 5.22 µM (inactive), the GI50 (LOX IMVI) was 15.1 µM (inactive) and the GI50 (SN12C) was 18.1 µM (inactive). For the same molecule, the GI50 (SF-539) was 15.7 µM (inactive), the GI50 (U-251) was 6.81 µM (inactive) and the GI50 (RPMI-8226) was 41.3 µM (inactive). The GI50 (BT-549) was 19.5 µM (inactive), the GI50 (SK-OV-3) was 14 µM (inactive) and the GI50 (HL-60) was 45.8 µM (inactive). The GI50 (NCI/ADR-RES) was 16.3 µM (inactive) and the GI50 (A498) was 3.12 µM (inactive).
